From BindingDB's records for doi:10.7270/Q2M043S8 (University of Pittsburgh, 2006) come the findings set out here.

A value given as a limit tells only on which side of the number the result lay.

Broadly, the IC50 is the concentration needed to halve the response being measured. High values mean weaker potency in that assay, low ones greater potency in that assay.

The target of this test is T1, Dual specificity protein phosphatase 6 (Rattus norvegicus, UniProt Q64346).
T1 sequence (Q64346 whole entry): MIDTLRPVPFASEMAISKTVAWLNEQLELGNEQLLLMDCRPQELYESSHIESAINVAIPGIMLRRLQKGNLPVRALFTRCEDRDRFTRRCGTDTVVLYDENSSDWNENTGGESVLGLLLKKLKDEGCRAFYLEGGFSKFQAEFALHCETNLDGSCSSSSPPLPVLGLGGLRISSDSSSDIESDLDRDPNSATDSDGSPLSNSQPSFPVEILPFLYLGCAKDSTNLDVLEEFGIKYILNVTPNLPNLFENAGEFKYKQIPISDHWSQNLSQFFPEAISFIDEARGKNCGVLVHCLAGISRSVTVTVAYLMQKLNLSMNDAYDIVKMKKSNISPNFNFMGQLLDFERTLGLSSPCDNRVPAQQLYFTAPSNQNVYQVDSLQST
The test can be described thus: MKP-3 phosphatase inhibition with catalase present, dose response, biochemical, rat DUSP6, catalase added, probe assessment (AID 564).
`CCCCn1c(SCC(=O)c2ccc(OC)cc2OC)nc2cc(S(N)(=O)=O)ccc21` [1-butyl-2-[2-(2,4-dimethoxyphenyl)-2-oxidanylidene-ethyl]sulfanyl-benzimidazole-5-sulfonamide] returned a half-maximal inhibitory concentration (IC50) of more than 50 µM.
For `CCn1c(SCC(=O)Nc2ccc3c(c2)c2ccccc2n3CC)nnc1-c1ccco1` [MLS000050867], the IC50 is more than 50 µM.
Compound `CCOc1ccc(-c2cc3nc(C4CCN(C(=O)OC(C)(C)C)CC4)c(C(=O)O)cn3n2)cc1` [2-(4-ethoxyphenyl)-5-[1-[(2-methylpropan-2-yl)oxy-oxomethyl]-4-piperidinyl]-6-pyrazolo[1,5-a]pyrimidinecarboxylic acid] had an IC50 of more than 50 µM.
With `FC(F)(F)c1ccc(N2CCOCC2)c(Nc2nc3ccccc3n3cnnc23)c1` [MLS000093276], the IC50 is more than 50 µM.
As for `O=C(NC1(O)C(=O)c2ccccc2C1=O)c1ccccc1` [N-(2-hydroxy-1,3-dioxo-2-indenyl)benzamide], the figure is more than 50 µM; as for `Cc1cccc(N2CCN(C(=O)Cc3c(C(=O)O)[nH]c4ccc(Cl)cc34)CC2)c1C` [5-chloranyl-3-[2-[4-(2,3-dimethylphenyl)piperazin-1-yl]-2-oxidanylidene-ethyl]-1H-indole-2-carboxylic acid], more than 50 µM; as for `O=C(Nc1ccc2nc(-c3ccco3)c(-c3ccco3)nc2c1)N1CCCCCC1`, more than 50 µM.
Turning to `COc1ccc(-c2cc3nc(C4CCN(C(=O)OC(C)(C)C)CC4)c(C(=O)O)cn3n2)cc1` [2-(4-methoxyphenyl)-5-[1-[(2-methylpropan-2-yl)oxy-oxomethyl]-4-piperidinyl]-6-pyrazolo[1,5-a]pyrimidinecarboxylic acid], the IC50 was more than 50 µM.
As for `[O-]/[N+](=C\c1ccc(OC(F)F)cc1)c1ccccc1` [1-[4-(difluoromethoxy)phenyl]-N-phenylmethanimine oxide], the figure is more than 50 µM; as for `Cc1nc2c(C(=O)NCCC3=CCCCC3)c[nH]n2c(=O)c1Cl` [6-chloro-N-(2-cyclohex-1-en-1-ylethyl)-7-hydroxy-5-methylpyrazolo[1,5-a]pyrimidine-3-carboxamide], more than 50 µM.
In the case of `CC1=C(/C=C/C(C)=C/C=C/C(C)=C/C(=O)O)C(C)(C)CCC1` [ALL-TRANS-RETINOIC ACID] it was more than 50 µM; in that of `[O-]/[N+](=C/c1ccc(F)cc1)c1ccccc1` [(E)-(4-fluorobenzylidene)(phenyl)azane oxide], more than 50 µM.
As for `[O-]/[N+](=C\c1ccncc1)c1ccccc1`, the figure is more than 50 µM.
Compound `O=C1Nc2ccccc2SC(c2ccccc2)C1O` (stereo not drawn) [3-hydroxy-2-phenyl-2,3-dihydro-1,5-benzothiazepin-4(5H)-one] gave an IC50 of more than 50 µM.
`COc1cc(/C=C(/C#N)c2ccc(F)cc2)ccc1OCc1ccc(C(=O)O)o1` [5-({4-[2-cyano-2-(4-fluorophenyl)vinyl]-2-methoxyphenoxy}methyl)-2-furoic acid] showed an IC50 of more than 50 µM.
As for `CCCSc1nnc(NC(=O)c2sc3nc(-c4cccs4)ccc3c2N)s1` [3-amino-N-(5-propylsulfanyl-1,3,4-thiadiazol-2-yl)-6-thiophen-2-ylthieno[2,3-b]pyridine-2-carboxamide], the figure is more than 50 µM; as for `COc1ccc2noc3c2c1C(=O)c1ccccc1-3` [MLS000106874], more than 50 µM.
In the case of `CCCCn1c(NC(=O)c2ccccc2)c(C#N)c2nc3ccccc3nc21` [SMR000060333] it was more than 50 µM; in that of `Cn1ncnc2c(=O)n(C)c(=O)nc1-2`, more than 50 µM; in that of `O=C1C(=C2C(=O)c3ccccc3C2=O)Nc2ccccc21` [MLS000071738], more than 50 µM.
Consider `CCc1ccc(NC(=O)CSc2nc3ccccc3c(=O)n2CCN2CCOCC2)cc1` [MLS000095236], for which the IC50 was more than 50 µM.
`CCn1nc(-c2cccs2)nc2c(=O)n(C)c(=O)nc1-2` [1-ethyl-6-methyl-3-thiophen-2-yl-pyrimido[5,4-e][1,2,4]triazine-5,7-dione] came in with an IC50 of more than 50 µM.
As for `CC(C)Sc1nc2sc3c(c2c2nnc(SCC(=O)NCc4ccco4)n12)CCCC3` [MLS000082957], the figure is more than 50 µM; as for `CCCCCNC(=O)c1ccc2c(=O)[nH]c3c(C(=O)NCC4CCCO4)sc(=S)n3c2c1` (stereo not drawn) [5-oxo-N3-(2-oxolanylmethyl)-N8-pentyl-1-sulfanylidene-4H-thiazolo[3,4-a]quinazoline-3,8-dicarboxamide], more than 50 µM; as for `CC(C)Cn1c(N)c(C(=O)COC(=O)c2cc(-c3ccco3)nc3ccccc23)c(=O)n(C)c1=O` [2-(2-furanyl)-4-quinolinecarboxylic acid [2-[4-amino-1-methyl-3-(2-methylpropyl)-2,6-dioxo-5-pyrimidinyl]-2-oxoethyl] ester], more than 50 µM.
In turn, `N#Cc1c(NC(=O)c2ccc(Br)o2)n(-c2ccccc2)c2nc3ccccc3nc12` [5-bromanyl-N-(3-cyano-1-phenyl-pyrrolo[3,2-b]quinoxalin-2-yl)furan-2-carboxamide] came in with a half-inhibitory concentration (IC50) of more than 50 µM.
With `Cc1c(N=c2c(=O)c3ccccc3c2=O)c(=O)n(-c2ccccc2)n1C` [MLS000105950], the IC50 is more than 50 µM.
As for `N#Cc1c(N2CCCC2)nc(N)c2c(N)nc(N3CCCC3)cc12` [SMR000061605], the figure is more than 50 µM; as for `Cc1cccc(NC(=O)c2cc(NC(=O)C3CCCCC3C(=O)O)ccc2N2CCCCC2)c1` (stereo not drawn) [2-({[3-{[(3-methylphenyl)amino]carbonyl}-4-(1-piperidinyl)phenyl]amino}carbonyl)cyclohexanecarboxylic acid], more than 50 µM; as for `COc1ccc(-n2c(NC(=O)c3ccco3)c(C#N)c3nc4ccccc4nc32)cc1` [MLS000079925], more than 50 µM.
In the case of `Cc1nc2cc(-c3cccc(F)c3)nn2c(C)c1CCC(=O)N1CCC2(CC1)OCCO2` [1-(1,4-dioxa-8-azaspiro[4.5]decan-8-yl)-3-[2-(3-fluorophenyl)-5,7-dimethyl-6-pyrazolo[1,5-a]pyrimidinyl]-1-propanone], the IC50 is more than 50 µM.
`CCCCCC#CCC#CCC#CCC#CCCCC(=O)O` had an IC50 of more than 50 µM.
As to `O=C(Nc1ccccc1)c1ccc2nc(-c3ccco3)c(-c3ccco3)nc2c1` [2,3-di-2-furyl-N-phenyl-6-quinoxalinecarboxamide], the IC50 was more than 50 µM.
`Cc1ccc(/C=C/C2=Cc3c(sc(NC(=O)CSc4nnc(N)[nH]4)c3C#N)C(C)(C)C2)o1` [2-[(5-azanyl-1H-1,2,4-triazol-3-yl)sulfanyl]-N-[3-cyano-7,7-dimethyl-5-[(E)-2-(5-methylfuran-2-yl)ethenyl]-6H-1-benzothiophen-2-yl]ethanamide] yielded a half-maximal inhibitory concentration (IC50) of more than 50 µM.
`COc1ccc(Br)cc1C=c1sc2nc(-c3ccco3)nn2c1=O` [5-[(5-bromanyl-2-methoxy-phenyl)methylidene]-2-(furan-2-yl)-[1,3]thiazolo[3,2-b][1,2,4]triazol-6-one] had an IC50 of more than 50 µM.
The compound `Cc1cc(NC(=O)c2ccc(S(=O)(=O)N3CCCC3)cc2)nc2c1c(=O)oc1ccccc12` [MLS000091355] returned an IC50 of more than 50 µM.
`O=C(c1cccs1)c1no[n+]([O-])c1C(=O)c1cccs1` [(5-oxidanidyl-4-thiophen-2-ylcarbonyl-1,2,5-oxadiazol-5-ium-3-yl)-thiophen-2-yl-methanone] registered an IC50 of more than 50 µM.
As to `CCOc1cc(/C=C(/C#N)c2ccc(F)cc2)ccc1OCc1ccc(C(=O)O)o1` [5-[[4-[(E)-2-cyano-2-(4-fluorophenyl)ethenyl]-2-ethoxyphenoxy]methyl]furan-2-carboxylic acid], the IC50 is more than 50 µM.
